Values quoted from earlier work in PMC8513935.
Blank lines part the entries; values can stand above or below the molecule they belong to.

What was measured:
[1] = derived by the authors as gas->solvent minus gas->water (a hypothetical dry solvent; the ESI), not a two-phase measurement; settings: 25 C
[2] = log P octanol/water from commercial databases, averaged (the ESI); settings: Octanol (wet), 25 C
[3] = experimental, compiled by the authors from the literature (the ESI cites the sources); settings: 25 C

Compound: Cc1cc(C)c(C)cc1C
log K of transfer, water to solvent ([1]; 2-Methylpropan-1-ol): 4.24 log10 K | log K of transfer, water to solvent ([1]; 2-Methylpropan-2-ol): 4.32 log10 K | log K of transfer, water to solvent ([1]; 3-Methylbutan-1-ol): 4.33 log10 K | log K of transfer, water to solvent ([1]; Butan-1-ol): 4.39 log10 K | log K of transfer, water to solvent ([1]; Butan-2-ol): 4.32 log10 K | log K of transfer, water to solvent ([1]; Decan-1-ol): 4.48 log10 K | log K of transfer, water to solvent ([1]; Di-n-butyl ether): 4.74 log10 K | log K of transfer, water to solvent ([1]; Diethyl Ether): 4.85 log10 K | log K of transfer, water to solvent ([1]; Ethanol): 4.19 log10 K | log K of transfer, water to solvent ([1]; Heptan-1-ol): 4.44 log10 K | log K of transfer, water to solvent ([1]; Hexadecane): 4.5 log10 K | log K of transfer, water to solvent ([1]; Hexan-1-ol): 4.42 log10 K | log K of transfer, water to solvent ([1]; Hexane): 4.78 log10 K | log K of transfer, water to solvent ([1]; Methanol): 3.99 log10 K | log K of transfer, water to solvent ([1]; Pentan-1-ol): 4.39 log10 K | log K of transfer, water to solvent ([1]; Propan-1-ol): 4.26 log10 K | log K of transfer, water to solvent ([1]; Propan-2-ol): 4.22 log10 K | log K of transfer, water to solvent [2]: 4.1 log10 K | log K of transfer, gas to solvent ([3]; 2-Methylpropan-1-ol): 4.77 log10 K | log K of transfer, gas to solvent ([3]; 2-Methylpropan-2-ol): 4.85 log10 K | log K of transfer, gas to solvent ([3]; 3-Methylbutan-1-ol): 4.86 log10 K | log K of transfer, gas to solvent ([3]; Butan-1-ol): 4.92 log10 K | log K of transfer, gas to solvent ([3]; Butan-2-ol): 4.85 log10 K | log K of transfer, gas to solvent ([3]; Decan-1-ol): 5.01 log10 K | log K of transfer, gas to solvent ([3]; Di-n-butyl ether): 5.27 log10 K | log K of transfer, gas to solvent ([3]; Diethyl Ether): 5.38 log10 K | log K of transfer, gas to solvent ([3]; Ethanol): 4.72 log10 K | log K of transfer, gas to solvent ([3]; Heptan-1-ol): 4.97 log10 K | log K of transfer, gas to solvent ([3]; Hexadecane): 5.03 log10 K | log K of transfer, gas to solvent ([3]; Hexan-1-ol): 4.95 log10 K | log K of transfer, gas to solvent ([3]; Hexane): 5.31 log10 K | log K of transfer, gas to solvent ([3]; Methanol): 4.52 log10 K | log K of transfer, gas to solvent ([3]; Pentan-1-ol): 4.92 log10 K | log K of transfer, gas to solvent ([3]; Propan-1-ol): 4.79 log10 K | log K of transfer, gas to solvent ([3]; Propan-2-ol): 4.75 log10 K | log K of transfer, gas to solvent ([3]; Water): 0.53 log10 K

log K of transfer, water to solvent ([1]; Hexadecane): 5.64 log10 K | log K of transfer, water to solvent ([1]; Hexane): 5.94 log10 K | log K of transfer, water to solvent ([1]; Methanol): 4.78 log10 K | log K of transfer, water to solvent [2]: 5.19 log10 K | log K of transfer, gas to solvent ([3]; Hexadecane): 4.01 log10 K | log K of transfer, gas to solvent ([3]; Hexane): 4.31 log10 K | log K of transfer, gas to solvent ([3]; Methanol): 3.15 log10 K | log K of transfer, gas to solvent ([3]; Water): -1.63 log10 K
Compound: CCC(CC)(CC)CC
